Read-outs that look alike come from different tables or passages of the source.
Columns and labels:
[1] = target: T1, CB2 receptor (Homo sapiens, UniProt P34972); test: Binding assay for CB2 agonists or inverse agonists (SK-N-MC membranes, [3H]-CP-55,940); settings: for CB2 receptor binding percent inhibition: test concentration not stated
T1 construct: expressed in transfected cells
Summary of the method: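 IC50 came from percent-inhibition data over several compound concentrations, fitted by linear regression. Binding used semi-purified membranes of human CB2-transfected SK-N-MC cells, 90 min at 30 °C, pH 7.5 Tris-HCl with MgCl2, EDTA and BSA, then filtration and scintillation counting.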

[2] = target: T2, CB1 receptor (Homo sapiens, UniProt P21554); test: cell-based; settings: SK-N-MC cells
T2 construct: expressed in transfected cells
From the text: The CB1 and CB2 receptors are G-protein coupled receptors (GPCR), which influence cell function via the Gi-protein. These receptors modulate the activity of intracellular adenylate cyclase, which in turn produces the intracellular signal messenger cyclic-AMP (cAMP).
At baseline, or during non-ligand bound conditions, these receptors are constitutively active and tonically suppress adenylate cyclase activity. The binding of an agonist causes further receptor activation and produces additional suppression of adenylate cyclase activity. The binding of an inverse agonist inhibits the constitutive activity of the receptors and results in an increase in adenylate cyclase activity.
By monitoring intracellular adenylate cyclase activity, the ability of compounds to act as agonists or inverse agonists can be determined.
Test compounds were evaluated in SK-N-MC cells which, using standard transfection procedures, were stably transfected with human cDNA for pcDNA3-CRE β-gal and pcDNA3 CB1 receptor (human) or pcDNA3 CB2 receptor (human). By expressing CRE β-gal, the cells produced β-galactosidase in response to CRE promoter activation by cAMP. Cells expressing CRE β-gal and either the human CB1 or CB2 receptor will produce less β-galactosidase when treated with a CB1/CB2 agonist and will produce more β-galactosidase when treated with a CB1/CB2 inverse agonist.
The cells were grown in 96-well plates under standard cell culture conditions at 37° C. in a 5% CO2 atmosphere and culture media (wherein the media was supplemented with 2 mM L-glutamine, […] sodium pyruvate, 10% FBS (fetal bovine serum) and antibiotics).
The change in forskolin induced β-galactosidase activity was determined by setting a vehicle treated cell's activity value at 100% and expressing the β-galactosidase activity measured in a corresponding compound treated cell as a percent of the vehicle treated cell activity.
The EC50 value for functional activity for compounds tested was calculated by linear regression and was obtained from studies in which varying compound concentrations were used.
Where an EC50 value was not obtained for a test compound, the value shown (in %) represents change in functional activity and was obtained from a study in which one compound concentration was used.

[3] = target: T2, CB1 receptor; test: Binding assay for CB1 agonists or inverse agonists (SK-N-MC membranes, [3H]-CP-55,940); settings: for inhibition at 1 µM: read-out: CB1 receptor binding percent inhibition, test concentration 1 μM (footnote 1); for inhibition at 0.5 µM: read-out: CB1 receptor binding percent inhibition, test concentration 0.5 μM (footnote 10); for IC50: Cannabinoid CB1 Receptor Binding IC50, calculated by linear regression from percent inhibition at various test concentrations
Summary of the method: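 Radioligand displacement: [3H]-CP-55,940 at […], 90 min at 30° C, pH 7.5 Tris buffer with 0.5 mg/mL fatty-acid-free BSA, using semi-purified membranes of human-CB1-transfected SK-N-MC cells. Bound counts collected on GF/C filters, 10 uM WIN 55,212 for non-specific; IC50 from percent inhibition over several concentrations.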

[4] = CB1 Receptor Functional Inverse Agonist EC50, forskolin induced β-galactosidase activity
[5] = test concentration 1 μM (footnote 1), 1 µM
[6] = forskolin induced β-galactosidase activity, read-out: CB1 Receptor Functional Inverse Agonist EC50
[7] = read-out: CB2 receptor binding percent inhibition, test concentration 0.2 μM (footnote 2)
[8] = read-out: CB1 receptor binding percent inhibition, test concentration 0.2 μM (footnote 2)
[9] = test concentration 0.2 μM (footnote 2), read-out: CB2 receptor binding percent inhibition

T1 sequence (P34972 whole entry): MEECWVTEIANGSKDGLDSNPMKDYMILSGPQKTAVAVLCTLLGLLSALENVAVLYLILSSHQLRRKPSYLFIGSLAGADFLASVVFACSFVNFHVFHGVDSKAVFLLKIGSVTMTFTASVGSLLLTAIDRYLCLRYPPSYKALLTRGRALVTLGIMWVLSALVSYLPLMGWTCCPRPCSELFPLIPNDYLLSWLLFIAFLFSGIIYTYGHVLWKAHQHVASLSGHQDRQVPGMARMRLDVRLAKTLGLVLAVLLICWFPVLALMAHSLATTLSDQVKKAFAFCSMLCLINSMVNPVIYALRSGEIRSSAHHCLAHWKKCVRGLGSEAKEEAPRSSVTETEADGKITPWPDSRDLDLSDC
T2 sequence (P21554 whole entry): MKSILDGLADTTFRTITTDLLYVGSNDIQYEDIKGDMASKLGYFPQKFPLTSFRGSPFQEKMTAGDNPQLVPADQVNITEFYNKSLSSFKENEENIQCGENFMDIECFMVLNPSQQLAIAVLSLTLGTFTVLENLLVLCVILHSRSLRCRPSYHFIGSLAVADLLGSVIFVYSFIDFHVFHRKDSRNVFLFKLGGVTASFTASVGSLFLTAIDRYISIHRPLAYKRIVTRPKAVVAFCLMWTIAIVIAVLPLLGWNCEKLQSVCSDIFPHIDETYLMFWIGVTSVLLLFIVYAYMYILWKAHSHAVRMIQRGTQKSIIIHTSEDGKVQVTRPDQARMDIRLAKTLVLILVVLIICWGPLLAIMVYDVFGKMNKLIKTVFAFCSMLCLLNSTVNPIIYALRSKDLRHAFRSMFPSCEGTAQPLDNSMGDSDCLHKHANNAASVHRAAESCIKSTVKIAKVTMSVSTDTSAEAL

SMILES	CB2 receptor binding percent inhibition [1]	inhibition at 0.2 µM [3, 8]	inhibition at 0.2 µM [1, 9]	also measured
O=C(N[C@@H]1c2ccccc2C[C@@H]1O)c1nn(-c2ccc(Cl)cc2Cl)c2c1CCCCC2Cc1cccc(Cl)c1 (single isomer, unassigned) [Cpd 112, (8R*)-8-(3-chloro-benzyl)-1-(2,4-dichloro-phenyl)-1,4,5,6,7,8-hexahydro-cycloheptapyrazole-3-carboxylic acid [(1R,2S)-2-hydroxy-indan-1-yl]-amide]	16%	–	–	EC50 [2, 4]: 60 nM; inhibition at 1 µM [3]: 49%
O=C(N[C@@H]1c2ccccc2C[C@@H]1O)c1nn(-c2ccc(Cl)cc2Cl)c2c1CCCCC2Cc1cccc(Cl)c1 (single isomer, unassigned) [Cpd 113, (8S*)-8-(3-chloro-benzyl)-1-(2,4-dichloro-phenyl)-1,4,5,6,7,8-hexahydro-cycloheptapyrazole-3-carboxylic acid [(1R,2S)-2-hydroxy-indan-1-yl]-amide]	28%	–	–	EC50 [2, 4]: 100 nM; inhibition at 0.5 µM [3]: 44%; CB1 receptor binding percent inhibition [3, 5]: 62%; CB1 receptor binding percent inhibition ([3]; test concentration not stated): 53%
O=C(N[C@@H]1c2ccccc2C[C@@H]1O)c1nn(C2CCCCC2)c2c1CCCCC2Cc1cccc(F)c1 (single isomer, unassigned) [Cpd 114, (8R*)-1-cyclohexyl-8-(3-fluoro-benzyl)-1,4,5,6,7,8-hexahydro-cycloheptapyrazole-3-carboxylic acid [(1R,2S)-2-hydroxy-indan-1-yl]-amide]	47%	–	–	EC50 [2, 4]: 40 nM; CB1 receptor binding percent inhibition [3, 5]: ^(1)17%
C[C@H](NS(=O)(=O)/C=C/c1nn(-c2ccc(Cl)cc2Cl)c2c1CCCCC2Cc1cccc(Cl)c1)c1ccccc1 (stereo partly drawn) [Cpd 3, (2E)-2-[8-(3-chloro-benzyl)-1-(2,4-dichloro-phenyl)-1,4,5,6,7,8-hexahydro-cycloheptapyrazol-3-yl]-ethenesulfonic acid [(1S)-1-phenyl-ethyl]-amide]	26%	–	–	EC50 [2, 4]: 70 nM; IC50 [3]: 1300 nM; inhibition at 1 µM [3]: 60%
C[C@@H](NC(=O)c1nn(C2CCCCC2)c2c1CCCCC2Cc1cccc(Cl)c1)c1ccccc1 (stereo partly drawn) [Cpd 8, 8-(3-chloro-benzyl)-1-cyclohexyl-1,4,5,6,7,8-hexahydro-cycloheptapyrazole-3-carboxylic acid [(1R)-1-phenyl-ethyl]-amide]	5%	–	–	EC50 [2, 6]: 400 nM; inhibition at 1 µM [3]: 30%
O=C(NC1CCC1)c1nn(-c2ccc(Cl)cc2Cl)c2c1CCCCC2Cc1ccc(Cl)cc1 (stereo not shown) [Cpd 25, 8-(4-chloro-benzyl)-1-(2,4-dichloro-phenyl)-1,4,5,6,7,8-hexahydro-cycloheptapyrazole-3-carboxylic acid cyclobutylamide]	19%	–	–	EC50 [2, 6]: 1200 nM; inhibition at 0.5 µM [3]: 30%; inhibition at 1 µM [3]: 71%; CB1 receptor binding percent inhibition ([3]; test concentration not stated): 51%
C[C@@H](NC(=O)c1nn(-c2cc(Cl)ccc2Cl)c2c1CCCC/C2=C\c1ccc(Cl)cc1)c1ccccc1 [Cpd 195, (8E)-8-(4-chloro-benzylidene)-1-(2,5-dichloro-phenyl)-1,4,5,6,7,8-hexahydro-cycloheptapyrazole-3-carboxylic acid [(1R)-1-phenyl-ethyl]-amide]	–	–	–	inhibition at 0.2 µM [1, 7]: 37%; inhibition at 0.2 µM ([3]; read-out: CB1 receptor binding percent inhibition): 63%
C[C@@H](NC(=O)c1nn(-c2cc(Cl)ccc2Cl)c2c1CCCC/C2=C\c1ccc(Cl)cc1)C1CCCCC1 [Cpd 196, (8E)-8-(4-chloro-benzylidene)-1-(2,5-dichloro-phenyl)-1,4,5,6,7,8-hexahydro-cycloheptapyrazole-3-carboxylic acid [(1R)-1-cyclohexyl-ethyl]-amide]	–	67%	–	inhibition at 0.2 µM [1, 7]: 49%
O=C(NN1CCCCC1)c1nn(-c2cc(Cl)ccc2Cl)c2c1CCCC/C2=C\c1ccc(Cl)cc1 [Cpd 199, (8E)-8-(4-chloro-benzylidene)-1-(2,5-dichloro-phenyl)-1,4,5,6,7,8-hexahydro-cycloheptapyrazole-3-carboxylic acid piperidin-1-ylamide]	–	30%	30%	–
O=C(NN1CCOCC1)c1nn(-c2cc(Cl)ccc2Cl)c2c1CCCC/C2=C\c1ccc(Cl)cc1 [Cpd 200, (8E)-8-(4-chloro-benzylidene)-1-(2,5-dichloro-phenyl)-1,4,5,6,7,8-hexahydro-cycloheptapyrazole-3-carboxylic acid morpholin-4-ylamide]	–	15%	6%	–
O=C(c1nn(-c2cc(Cl)ccc2Cl)c2c1CCCC/C2=C\c1ccc(Cl)cc1)N1CCOCC1 [Cpd 201, (8E)-[8-(4-chloro-benzylidene)-1-(2,5-dichloro-phenyl)-1,4,5,6,7,8-hexahydro-cycloheptapyrazol-3-yl]-morpholin-4-yl-methanone]	–	11%	0%	–
O=C(N[C@@H](CO)c1ccccc1)c1nn(-c2ccc(Cl)cc2Cl)c2c1CCCC/C2=C\c1ccc(F)cc1 [Cpd 203, (8E)-1-(2,4-dichloro-phenyl)-8-(4-fluoro-benzylidene)-1,4,5,6,7,8-hexahydro-cycloheptapyrazole-3-carboxylic acid [(1R)-2-hydroxy-1-phenyl-ethyl]-amide]	–	37%	–	inhibition at 0.2 µM [1, 7]: 30%
O=C(c1n[nH]c2c1CCCC/C2=C\c1ccc(Cl)cc1)N1CCCCC1 [Cpd 223, (8E)-[8-(4-chloro-benzylidene)-1,4,5,6,7,8-hexahydro-cycloheptapyrazol-3-yl]-piperidin-1-yl-methanone]	–	40%	58%	–
C[C@@H](NS(=O)(=O)C=Cc1n[nH]c2c1CCCCC2Cc1cccc(F)c1)c1ccccc1 (stereo partly drawn) [Cpd 235, 2-[8-(3-fluoro-benzyl)-1,4,5,6,7,8-hexahydro-cycloheptapyrazol-3-yl]-ethenesulfonic acid [(1R)-1-phenyl-ethyl]-amide]	–	0%	41%	–
C[C@@H](NS(=O)(=O)/C=C/c1n[nH]c2c1CCCC/C2=C\c1ccc(Cl)cc1)c1ccccc1 [Cpd 236, (2E,8E)-2-[8-(4-chloro-benzylidene)-1,4,5,6,7,8-hexahydro-cycloheptapyrazol-3-yl]-ethenesulfonic acid [(1R)-1-phenyl-ethyl]-amide]	–	0%	41%	–
Cn1nc(C(=O)n2ccnc2)c2c1/C(=C/c1cccc(F)c1)CCCC2 [Cpd 243, (8E)-[8-(3-fluoro-benzylidene)-1-methyl-1,4,5,6,7,8-hexahydro-cycloheptapyrazol-3-yl]-imidazol-1-yl-methanone]	–	0%	0%	–
O=C(N[C@H](CO)Cc1ccc(O)cc1)c1n[nH]c2c1CCCC/C2=C\c1cccc(Cl)c1 [Cpd 246, (8E)-(2S)-8-(3-chloro-benzylidene)-1,4,5,6,7,8-hexahydro-cycloheptapyrazole-3-carboxylic acid [1-hydroxymethyl-2-(4-hydroxy-phenyl)-ethyl]-amide]	–	0%	15%	–
COC(=O)[C@@H](Cc1ccc(F)cc1)NC(=O)c1nn(C)c2c1CCCC/C2=C\c1cccc(F)c1 [Cpd 248, (8E)-(2R)-2-{[8-(3-fluoro-benzylidene)-1-methyl-1,4,5,6,7,8-hexahydro-cycloheptapyrazole-3-carbonyl]-amino}-3-(4-fluoro-phenyl)-propionic acid methyl ester]	–	89%	–	IC50 ([1]; Cannabinoid CB2 Receptor Binding IC50, calculated by linear regression from percent inhibition at various test concentrations): 3 nM; inhibition at 0.2 µM [1, 7]: 96%; IC50 [3]: 7 nM
